How the values were obtained:
[1] = tested on: alpha-1 type 1 collagen (COL1A1) protein in LX2 cells; assay: Simple Western of COL1A1 protein in TGF-β1-stimulated LX2 hepatic stellate cells; format: cell-based, human; details: for upregulation of COL1A1 in TGF-β1-treated LX2 cells: 10 μM, 30 min pretreatment, then 5 ng/ml TGF-β1 for 24 h; for protein abundance of COL1A1: sole treatment 10 μM for 24 h, LX2 cells, no TGF-β1
Experimental: The human hepatic stellate cell line LX2 was purchased from Merck. The cells were used up to passage ten and incubated under sterile conditions at 37° C. and 5% CO2. The cells were cultivated in medium containing Dulbecco's Modified Eagle's Medium with 4.5 g/l glucose (ThermoFisher), 4 mmol/l glutamine (ThermoFisher), 2% fetal bovine serum (FBS) (Merck), 100 U/ml penicillin and 100 μg/ml streptomycin (Merck). After 2 days, LX2 cells were starved for FBS for 24 h and then pretreated with 10 μM HK1 (Taros Chemicals GmbH & Co. KG) or 10 μM HK3 (Taros Chemicals GmbH & Co. KG) for 30 min. Subsequently, 5 ng/ml recombinant TGF-β1 (R&D Systems, Minneapolis, MN, USA) was added to the hepatic stellate cell cultures for 24 h. LX2 cells were also incubated with 5 ng/ml TGF-β1 alone as positive control for the hepatic stellate cell activation. Recombinant TGF-β1 was dissolved in sterile 4 mmol/l HCl (Merck) containing 0.1% bovine serum albumin (Roth Karlsruhe, Germany) as carrier protein. HK1 and HK3 were dissolved in sterile dimethyl sulfoxide (DMSO) (Sigma-Aldrich, Munich, Germany). Stimulations with 10 μM HK1, 10 μM HK3 and the corresponding vehicles (HCl and DMSO with or without HCl) alone for 24 h were also included as treatments.
For the measurement of the pro-fibrotic proteins, Western Blotting was performed. Proteins were extracted from whole cell lysate of LX2 cells using RIPA lysis buffer containing 50 mmol/l Tris-HCl (pH 8.0), 150 mmol/l NaCl, 1% IGEPAL® CA-630, 0.5% sodium deoxycholate, 0.1% sodium dodecyl sulfate, 10% PhosSTOP Phosphatase Inhibitor Cocktail (Roche, Basel, Switzerland) and 10% cOmplete Mini Protease Inhibitor Cocktail (Roche). Lysates were centrifuged at 14850×g for 15 min at 4° C. Then, the total protein content of the lysates was determined using a bicinchoninic acid protein assay (ThermoFisher Scientific) in accordance with the manufacturer's instructions. The quantification of protein abundance was performed by Simple Western size-based assays using a 12-230 kDa and 66-440 kDa Separation Module (ProteinSimple, San Jose, CA, USA) according to the manufacturer's instructions. This fully automated Western blotting system is based on a capillary electrophoresis technology. The separation, immobilization to the capillary wall via a proprietary, photoactivated capture chemistry and immunodetection of the proteins using a horseradish peroxidase (HRP)-conjugated secondary antibody and chemiluminescent substrate take place directly in the capillary without gel separation and transfer steps to blotting paper. The chemiluminescence is measured at multiple exposure times and automatically quantified by the Compass for Simple Western software (version 4.1.0) (ProteinSimple). The chemiluminescent signal for immunodetected proteins, which can be represented as an electropherogram or virtual blot-like image, is automatically quantified by calculation of the area under the curve of the peak.
The software reports the molecular weight, the area (in an arbitrary unit and in percent) and signal to noise ratio for each protein detected. The primary antibodies for the recognition of endogenous levels of total alpha-1 type 1 collagen (COL1A1) protein (#72026) and total fibronectin 1 (FN1) protein (#26836) were purchased from Cell Signaling Technology (Danvers, MA, USA). The anti-rabbit HRP-linked secondary antibody was from ProteinSimple. […]
Differences were analysed by one-way ANOVA followed by the Tukey method as correction for multiple testing.

[2] = tested on: 3D primary human hepatocyte (PHH) spheroid NASH model; assay: Viability (ATP, CellTiter-Glo) of 3D PHH:NPC spheroids; format: cell-based; details: 0.1 μM to 10 μM, up to 2 weeks
Experimental: Experiments were conducted using HepaPredict's (HepaPredict AB, Sweden) 3D primary human hepatocyte (PHH) spheroid NASH model (e.g. as published in Bell et al. Sci Rep. 2016 May 4; 6:25187. doi: 10.1038/srep25187).
Cryopreserved primary human hepatocytes were obtained from BioIVT (USA) and nonparenchymal cells (NPC) from LifeNetHealth (USA). After thawing, PHH-NPC cocultures were seeded in a multi-well 96-well Elplasia plate (Corning) in William's E medium containing 11 mM glucose, 10 μg/mL (control) or 10 mg/mL insulin (NASH), 100 nM dexamethasone, 5.5 mg/L transferrin, 6.7 μg/L selenite, 2 mM L-glutamine, 1 U/mL penicillin, 0.1 mg/mL streptomycin, and 10% fetal bovine serum (FBS). […]
After spheroid formation, cells were exposed to up to five different concentrations of the candidate molecules HK1 or HK3 (0.1 μM, 0.3 μM, 1 μM, 3 μM, and 10 μM) with or without FFA in the culture medium. […] All endpoints were evaluated after 14 days of exposure. […]
Viability was evaluated by ATP quantification using the CellTiter-Glo Luminescent Cell Viability Assay (Promega) according to the manufacturer's instructions. […] Subsequently, luminescence signals were measured using a SpectraMax iD5 multi-mode microplate reader (Molecular Devices). Viability was evaluated after up to two weeks of exposure and values are plotted as relative to vehicle (DMSO) controls with or without FFA. […]

Q: `Cc1cc(NC(=S)/C(C#N)=C(\O)C2CC2)ccc1F` [HK1, 2-Cyano-3-cyclopropyl-N-(4-fluoro-3-methyl-phenyl)-3-hydroxy-thioacrylamide] was tested. Which “upregulation of COL1A1 in TGF-β1-treated LX2 cells” value [1] did it give?
A: The value was “completely suppressed”.

Q: What about the “protein abundance of COL1A1” value [1] of the same molecule?
A: Its value is “no impact”.

Q: What about the “viability of the spheroids (ATP) relative to vehicle (DMSO)” value [2] of the same molecule?
A: The value was “did not affect”.

Q: `Cc1cc(NC(=S)/C(C#N)=C(\O)C2CC2)ccc1[N+](=O)[O-]` [HK3, 2-Cyano-3-cyclopropyl-3-hydroxy-N-(3-methyl-4-nitro-phenyl)-thioacrylamide] was tested. Which “upregulation of COL1A1 in TGF-β1-treated LX2 cells” value [1] did it give?
A: Its value is “completely suppressed”.

Q: What about the “protein abundance of COL1A1” value [1] of the same molecule?
A: The value was “no impact”.

Q: What about the “viability of the spheroids (ATP) relative to vehicle (DMSO)” value [2] of the same molecule?
A: The value was “did not affect”.

From patent US20260191815A1, “THIOACRYLAMIDE DERIVATIVES FOR USE IN THE PREVENTION OR TREATMENT OF LIVER FIBROSIS” (CMR CUREDIAB METABOLIC RESEARCH GMBH, priority 2022, published 2026)
